# Measured values from patent publication US9862684B2, “Modulation of K2P channels” (The Regents of the University of California, priority 2013, dated 2018).
# Columns and labels:
# K2P2.1 (TREK-1) G137I = target: T1, K2P2.1 (TREK-1) G137I (Mus musculus, UniProt P97438, G152I); assay: Two-electrode voltage clamp, Xenopus oocytes, C-type gate mutant G137I; format: cell-based, Murine
# T1 construct: expressed in transfected cells; host or cells: Xenopus oocytes
# T1 sequence (P97438 1-411 isoform P97438-2 G137I): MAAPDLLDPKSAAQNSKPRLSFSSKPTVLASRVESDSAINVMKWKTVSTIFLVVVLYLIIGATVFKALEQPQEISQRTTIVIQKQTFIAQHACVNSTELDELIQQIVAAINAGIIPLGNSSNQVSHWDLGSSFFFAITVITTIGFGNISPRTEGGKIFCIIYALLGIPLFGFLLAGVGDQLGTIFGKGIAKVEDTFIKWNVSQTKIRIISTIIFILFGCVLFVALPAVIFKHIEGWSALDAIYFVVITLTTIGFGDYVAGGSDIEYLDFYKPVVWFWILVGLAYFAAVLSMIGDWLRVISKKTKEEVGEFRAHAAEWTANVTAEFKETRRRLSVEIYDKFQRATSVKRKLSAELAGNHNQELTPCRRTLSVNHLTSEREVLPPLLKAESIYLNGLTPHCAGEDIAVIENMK
# Procedure: I-V curves were measured by two-electrode voltage clamp of Xenopus oocytes in b, 90 mM [K^+]o. or c-e, 2 mM [K^+]o. […] Data (were measured at 20 mV (90 mM [K^+]o) or 0 mV (2 mM [K^+]o), normalized to basal channel activity, and fitted to the Hill equation. Error bars indicate s.e., n≧6, N≧2.
# (§1) Murine K2P channels were cloned into pGEMHE/pMO {Bagriantsev, 2011}, IRES-GFP (Invitrogen), or pYES2-MET25 (high copy 2μ, URA3) {Minor, 1999} for expression in oocytes, HEK-293T cells, and yeast, respectively, using standard molecular biology procedures, and verified by DNA sequencing.
# (§2) Two-electrode voltage clamp recordings were performed from defolliculated stage V-VI Xenopus oocytes 24-48 hours after injection with 0.015-6.0 ng cRNA, using microelectrodes (0.3-3.0 MΩ) filled with 3M KCl. Data was acquired using the GeneClamp 500B (MDS Analytical Technologies) amplifier controlled by the pClamp software (Molecular Devices), and digitized at 1 kHz using Digidata 1332A (MDS Analytical Technologies). Recording solutions (mM): 2K (96 NaCl, 2 KCl, 1.8 CaCl2, 2 MgCl2), 90K (90 KCl, 8 NaCl, 1.8 CaCl2, 2 MgCl2), were buffered 5 mM HEPES pH 7.4. For K2P recordings, currents we elicited by a 1 second long ramp from −150 to +50 mV from a holding potential of −80 mV (2K), or −100 to +50 mV from a holding potential of 0 mV (90K). […]
# K2P9.1 (TASK-3) = target: T2, K2P9.1 (TASK-3) (Mus musculus, UniProt Q3LS21); assay: Two-electrode voltage clamp, Xenopus oocytes expressing K2P9.1 (TASK-3); format: cell-based, Murine
# T2 construct: expressed in transfected cells; host or cells: Xenopus oocytes
# T2 sequence (Q3LS21 whole entry): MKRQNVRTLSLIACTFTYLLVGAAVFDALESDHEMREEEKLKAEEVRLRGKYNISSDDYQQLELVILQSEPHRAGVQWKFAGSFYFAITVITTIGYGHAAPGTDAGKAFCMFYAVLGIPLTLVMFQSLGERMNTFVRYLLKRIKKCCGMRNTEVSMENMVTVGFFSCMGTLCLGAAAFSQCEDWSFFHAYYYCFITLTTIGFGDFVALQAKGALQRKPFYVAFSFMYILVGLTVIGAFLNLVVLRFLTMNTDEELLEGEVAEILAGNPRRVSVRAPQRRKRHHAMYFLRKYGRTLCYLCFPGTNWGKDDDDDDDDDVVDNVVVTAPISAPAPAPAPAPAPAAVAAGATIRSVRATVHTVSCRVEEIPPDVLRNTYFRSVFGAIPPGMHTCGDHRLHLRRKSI
# Procedure: FIG. 7 ML67-33 is a selective activator of heat- and mechanosensitive K2P channels. a-f, Exemplar I-V curves showing the effect of ML67-33 on a, K2P10.1 (TREK-2), b, K2P4.1 (TRAAK), c, K2P3.1 (TASK-1), d, K2P9.1 (TASK-3), e, K2P5.1 (TASK-2), and f, K2P18.1 (TRESK) measured in Xenopus oocytes in 2 mM [K^+]o pH 7.4. Currents were elicited by a voltage ramp from −150 to 50 mV, from a holding potential of −80 mV. g, Quantification of the effect of ML67-33 on the indicated channels. Data (mean±s.e., n≧6, N≧2) was normalized to basal channel activity and fitted to the Hill equation. […] Error bars indicate s.e., n≧6, N≧2.
# as §1
# as §2, with “(90K). For KCNQ2 recordings, currents were elicited by a step protocol from −120 to 60 mV, in 20 mV increments, from a holding potential of −80 mV. Patch-clamp recordings from HEK-293T cells were performed using microelectrodes (2-3 MΩ) filled with 1M KCl. Data was acquired using the Axopatch 200B amplifier controlled by pClamp software, and digitized at 1 kHz using Digidata 1332A.” for “(90K).”
# Solubility (remarks) = format: physicochemical
structure (smiles),measurement,setting,value
"CC1(C)c2cc(Cl)ccc2N(CCc2nnn[nH]2)c2ccc(Cl)cc21 [ML67-33, 2,7-dichloro-9,9-dimethyl-10-[2-(1H-tetrazol-5-yl)ethyl]acridine]",response to ML67-33 activation (in words),K2P2.1 (TREK-1) G137I,completely resistant
same,Emax (fold) at 150 μM,K2P2.1 (TREK-1) G137I; at 150 μM,0.9 ± 0.1 at 150 μM fold
same,functional effect (in words),K2P9.1 (TASK-3); applied at 100 μM,little or no functional effects
same,Emax at 100 μM,K2P9.1 (TASK-3); at 100 μM (FIG. 7 legend),2.0±0.1
same,Emax (fold) at 150 μM,K2P9.1 (TASK-3); at 150 μM,2.1 ± 0.4 at 150 μM fold
same,solubility (in words),Solubility (remarks),favorable solubility properties
